ChEMBL document CHEMBL5518168, “Tumor-homing peptide iRGD-conjugate enhances tumor accumulation of camptothecin for colon cancer therapy” (Eur J Med Chem, 2024)
The source made the active and inactive calls. The rule behind the calls is not given here.

Tests used:
[1] = Drug uptake in human SW480 cells assessed as increase in blue fluorescence at 30 uM incubated for 1 hr by DRAQ5 staining based confocal microscopy analysis; assay type: ADME, cell-based; settings: sw480, 1 h
HT-29 [2] = assay: Cytotoxicity against human HT-29 cells assessed as reduction in cell viability at 10 to 50 uM incubated for 48 hrs by MTT assay; assay type: functional, cell-based; settings: dose 10-50 µM
HT-29 [3] = assay: Cytotoxicity against human HT-29 cells assessed as reduction in cell viability at greater than 0.078 uM incubated for 48 hrs by MTT assay; assay type: functional, cell-based
HT-29 [4] = assay: Cytotoxicity against human HT-29 cells assessed as cell viability at 25 uM incubated for 48 hrs by MTT assay; assay type: functional; settings: read-out: Activity
SW480 [5] = assay: Cytotoxicity against human SW480 cells assessed as cell viability at 25 uM incubated for 48 hrs by MTT assay; assay type: functional; settings: read-out: Activity
HT-29 [6] = assay: Cytotoxicity against human HT-29 cells assessed as reduction in cell viability incubated for 48 hrs by MTT assay; assay type: functional, cell-based; settings: HT-29, 48 h
SW480 [7] = assay: Cytotoxicity against human SW480 cells assessed as reduction in cell viability incubated for 48 hrs by MTT assay; assay type: functional, cell-based; settings: SW480, 48 h
HT-29 [8] = assay: Potency index, ratio of CPT IC50 to test compound IC50 for cytotoxicity against human HT-29 cells; assay type: functional
SW480 [9] = assay: Potency index, ratio of CPT IC50 to test compound IC50 for cytotoxicity against human SW480 cells; assay type: functional
THP-1 = assay: Cytotoxicity against human THP-1 cells assessed as reduction in cell viability incubated for 48 hrs by MTT assay; assay type: toxicity, cell-based; settings: thp-1, 48 h
CCD-18Co = assay: Cytotoxicity against human CCD-18Co cells assessed as reduction in cell viability incubated for 48 hrs by MTT assay; assay type: toxicity, cell-based
[10] = Stability in human plasma assessed as drug hydrolysis after 15 mins by HPLC analysis; assay type: ADME, cell-free; settings: read-out: Drug degradation
[11] = Stability in human plasma assessed as drug hydrolysis after 5 hrs by HPLC analysis; assay type: ADME, cell-free; settings: read-out: Drug degradation
[12] = Stability in human plasma assessed as parent compound remaining after 18 hrs by HPLC analysis; assay type: ADME, cell-free; settings: read-out: Stability
SW480 [13] = assay: Antitumor activity against human SW480 cells xenografted in BALB/c mouse assessed as increase in body weight at 0.1 mg/kg, iv administered once every 2 days and measured after 12 days; assay type: functional, organism-based; settings: time 12.0 day
SW480 [14] = assay: Antitumor activity against human SW480 cells xenografted in BALB/c mouse assessed as reduction in tumor volume at 0.1 mg/kg, iv administered once every 2 days and measured on day 8; assay type: functional, organism-based; settings: time 8.0 day
SW480 [15] = assay: Antitumor activity against human SW480 cells xenografted in BALB/c mouse assessed as reduction in tumor volume at 0.1 mg/kg, iv administered once every 2 days and measured on day 18; assay type: functional; set-up: scale not given: the % may be the effect or the level left; settings: time 18 day
SW480 [16] = assay: Antitumor activity against human SW480 cells xenografted in BALB/c mouse assessed as tumor inhibition rate at 0.1 mg/kg, iv administered once every 2 days for 18 days; assay type: functional; set-up: scale not given: the % may be the effect or the level left; settings: time 18 day
SW480 [17] = assay: Antitumor activity against human SW480 cells xenografted in BALB/c mouse assessed as tumor burden at 0.1 mg/kg, iv administered once every 2 days for 18 days (reference value: 1.88%); assay type: functional; settings: time 18 day
SW480 [18] = assay: Antitumor activity against human SW480 cells xenografted in BALB/c mouse assessed as tumor growth inhibition at 0.1 mg/kg, iv administered once every 2 days for 18 days; assay type: functional, organism-based; settings: time 18.0 day
SW480 [19] = assay: Antitumor activity against human SW480 cells xenografted in BALB/c mouse assessed as decrease in Ki67 expression at 0.1 mg/kg, iv administered once every 2 days for 18 days by immunohistochemical analysis; assay type: functional, organism-based; settings: time 18.0 day
[20] = Drug distribution in BALB/c mouse tumor xenografted with human A549 cells at 22.23 mg/kg, iv measured after 24 hrs by HPLC analysis; assay type: ADME, organism-based, Neoplasm; settings: in vivo
[21] = Drug distribution in BALB/c mouse spleen xenografted with human A549 cells at 22.23 mg/kg, iv measured after 24 hrs by HPLC analysis; assay type: ADME, organism-based; settings: in vivo
[22] = Drug distribution in BALB/c mouse heart xenografted with human A549 cells at 22.23 mg/kg, iv measured after 24 hrs by HPLC analysis; assay type: ADME, organism-based; settings: in vivo
[23] = Drug distribution in BALB/c mouse tumor xenografted with human A549 cells at 22.23 mg/kg, sc measured after 24 hrs by HPLC analysis; assay type: ADME, organism-based, Neoplasm; settings: in vivo
[24] = Drug distribution in BALB/c mouse lung xenografted with human A549 cells at 22.23 mg/kg, sc measured after 24 hrs by HPLC analysis; assay type: ADME, organism-based; settings: in vivo
[25] = Drug distribution in BALB/c mouse heart xenografted with human A549 cells at 22.23 mg/kg, sc measured after 24 hrs by HPLC analysis; assay type: ADME, organism-based; settings: in vivo
SW480 [26] = assay: Antitumor activity against human SW480 cells xenografted in BALB/c mouse assessed as fold decrease in cell viability by measuring Ki67 positive cells at 0.1 mg/kg, iv administered once every 2 days for 18 days by immunohistochemical analysis relative to CPT; assay type: functional; settings: time 18 day
SW480 [27] = assay: Antitumor activity against human SW480 cells xenografted in BALB/c mouse assessed as fold decrease in cell viability by measuring Ki67 positive cells at 0.1 mg/kg, iv administered once every 2 days for 18 days by immunohistochemical analysis relative to control; assay type: functional; settings: time 18 day
SW480 [28] = assay: Antitumor activity against human SW480 cells xenografted in BALB/c mouse assessed as increase in body weight at 0.019 mg/kg, iv administered once every 2 days and measured after 12 days; assay type: functional, organism-based; settings: time 12.0 day
SW480 [29] = assay: Antitumor activity against human SW480 cells xenografted in BALB/c mouse assessed as reduction in tumor volume at 0.019 mg/kg, iv administered once every 2 days and measured on day 18; assay type: functional; set-up: scale not given: the % may be the effect or the level left; settings: time 18 day
SW480 [30] = assay: Antitumor activity against human SW480 cells xenografted in BALB/c mouse assessed as tumor inhibition rate at 0.019 mg/kg, iv administered once every 2 days for 18 days; assay type: functional; set-up: scale not given: the % may be the effect or the level left; settings: time 18 day
SW480 [31] = assay: Antitumor activity against human SW480 cells xenografted in BALB/c mouse assessed as tumor burden at 0.019 mg/kg, iv administered once every 2 days for 18 days (reference value: 1.88%); assay type: functional; settings: time 18 day
[32] = Drug distribution in BALB/c mouse spleen xenografted with human A549 cells at 2.5 mg/kg, iv measured after 24 hrs by HPLC analysis; assay type: ADME, organism-based; settings: in vivo
[33] = Drug distribution in BALB/c mouse lung xenografted with human A549 cells at 2.5 mg/kg, iv measured after 24 hrs by HPLC analysis; assay type: ADME, organism-based; settings: in vivo
[34] = Drug distribution in BALB/c mouse heart xenografted with human A549 cells at 2.5 mg/kg, iv measured after 24 hrs by HPLC analysis; assay type: ADME, organism-based; settings: in vivo
[35] = Drug distribution in BALB/c mouse spleen xenografted with human A549 cells at 2.5 mg/kg, sc measured after 24 hrs by HPLC analysis; assay type: ADME, organism-based; settings: in vivo
[36] = Drug distribution in BALB/c mouse lung xenografted with human A549 cells at 2.5 mg/kg, sc measured after 24 hrs by HPLC analysis; assay type: ADME, organism-based; settings: in vivo
[37] = Drug distribution in BALB/c mouse heart xenografted with human A549 cells at 2.5 mg/kg, sc measured after 24 hrs by HPLC analysis; assay type: ADME, organism-based; settings: in vivo

For `CC[C@@]1(OC(=O)CCCOCCOCCONC(=O)CCN2C(=O)CC(SC[C@H](NC(C)=O)C(=O)N[C@H]3CSSC[C@@H](C(=O)O)NC(=O)[C@H](CC(=O)O)NC(=O)[C@@H]4CCCN4C(=O)CNC(=O)[C@H](CCCCN)NC(=O)[C@H](CC(=O)O)NC(=O)CNC(=O)[C@H](CCCNC(=N)N)NC3=O)C2=O)C(=O)OCc2c1cc1n(c2=O)Cc2cc3ccccc3nc2-1` (stereo partly drawn), the Drug uptake [1] was “Active”, the Activity (HT-29 [2]) was “Active” and the Activity (HT-29 [3]) was “Active”. It also gave a viability at 25 µM (HT-29 [4]) of 16.3%, a viability at 25 µM (SW480 [5]) of 22.3% and an IC50 (HT-29 [6]) of 350 nM. For the same compound, the IC50 (SW480 [7]) was 320 nM, the “Ratio IC50” value (HT-29 [8]) was 6.7 and the “Ratio IC50” value (SW480 [9]) was 24. For the same compound, the Activity (THP-1) was “Non-Toxic”, the Activity (CCD-18Co) was “Non-Toxic” and the metabolised at 0.25 h [10] was 1.4%. The metabolised at 5 h [11] was 15.5%, the remaining at 18 h [12] was 76.4% and the Activity (SW480 [13]) was “Active”. The Activity (SW480 [14]) was “Active”, the Activity (SW480 [15]) was 39.7% and the Activity (SW480 [16]) was 75%. For the same compound, the Activity (SW480 [17]) was 1.44%, the Activity (SW480 [18]) was “Active” and the Activity (SW480 [19]) was “Active”. The Drug uptake [20] was “Active”, the Drug uptake [21] was “Active” and the Drug uptake [22] was “Active”. The Drug uptake [23] was “Active”, the Drug uptake [24] was “Active” and the Drug uptake [25] was “Active”. For the same compound, the “fold change (FC)” value (SW480 [26]) was 6.4 and the “fold change (FC)” value (SW480 [27]) was 10.5.
With `CC[C@@]1(O)C(=O)OCc2c1cc1n(c2=O)Cc2cc3ccccc3nc2-1` [CAMPTOTHECIN] the viability at 25 µM (HT-29 [4]) was 32.4%, the viability at 25 µM (SW480 [5]) was 29.5% and the IC50 (HT-29 [6]) was 2350 nM. The IC50 (SW480 [7]) was 8560 nM, the Activity (SW480 [28]) was “inactive” and the Activity (SW480 [29]) was 6.8%. For the same compound, the Activity (SW480 [30]) was 56%, the Activity (SW480 [31]) was 1.59% and the Drug uptake [32] was “Active”. The Drug uptake [33] was “Active”, the Drug uptake [34] was “Active” and the Drug uptake [35] was “Active”. The Drug uptake [36] was “Active” and the Drug uptake [37] was “Active”.
